According to PMC7396449, “Biochemical determinants of the IGFBP‐3–hyaluronan interaction” (FEBS Open Bio, 2020):
Blank lines part the entries; values can stand above or below the substance they belong to. Ends that are not written are not given here.

Assays:
[1] = biological target: binding of biotin‐HA to immobilized IGFBP‐3; assay: ELISA, competition of CD44 with IGFBP-3 for binding HA; design: species or system human; conditions: for IC50: 10 nM glycosylated IGFBP-3 coated, biotin-HA 100 nM incubated 1 h with CD44 0–1000 nM, mean ± SD of three independent experiments in triplicate, read-out: concentration of CD44 that produced 50% of maximum binding (50% inhibition of biotin-HA binding to IGFBP-3)
Method: ELISA was conducted as we reported previously. Nunc MaxiSorp 96‐well flat‐bottom plates (Thermo Fisher, Waltham, MA, USA) were coated with samples as indicated. The plates were incubated overnight at 4 °C on a shaker to allow binding of the samples to the plate wells. After the incubation, the wells were washed 4× with TBST, filled with 400 µL blocking buffer (110 mM KCl, 5 mM NaHCO3, 5 mM MgCl2, 1 mM EGTA, 0.1 mM CaCl2, 20 mM HEPES, 1% BSA, pH 7.4), and incubated overnight at 4 °C on a shaker. The wells were then washed 4× with TBST, and 100 µL of sample at the desired concentration was added to each well before incubating overnight at 4 °C on a shaker. TBST was then used to wash the wells 4× before proceeding in one of two ways: (a) Biotinylated samples were analyzed by adding 100 µL streptavidin–HRP conjugate in TBST (1 : 2500 dilution) to the samples before incubating for 3 h at RT on a shaker, or (b) samples without biotin were analyzed by adding 100 µL TBST containing the primary antibody at the manufacturer's recommendation and incubating for 3 h at RT on a shaker before washing 4× with TBST. The secondary antibody in 100 µL TBST was then added to the samples following the manufacturer's recommendation and incubated for 1 h at RT on a shaker. Plates containing either biotinylated or nonbiotinylated samples were then washed 5× with TBST followed by the addition of 100 µL TMB resulting in a blue color change. The reaction was stopped with 100 µL 2 M H2SO4 after incubating at RT for 0.5–15 min, resulting in a yellow color change that was measured by absorbance at 450 nm. To monitor nonspecific binding, negative control wells on the plates included, for example, bound IGFBP‐3 then adding all components, streptavidin–horseradish peroxidase and TMB, but without addition of biotin‐HN. Some wells were coated with 2.5, 10, 50, 100, 500, and 5000 nM biotin‐HN or biotin‐HA to allow conversion of the OD measurements to concentrations of bound material. Before analysis, the OD from the data was corrected for nonspecific binding by subtracting the mean background absorbance for the negative controls. Typically, in control wells incubated on each plate, the background binding is about 10–15% of the maximum binding seen with addition of biotin‐HN or biotin‐HA or antibodies. Statistical analysis was determined by the GRAPHPAD PRISM 8.4.2 software (San Diego, CA, USA). Data were expressed as the mean ± SD. Three to five independent experiments were carried out in triplicate for each assay condition.
Glycosylated recombinant His‐tagged IGFBP‐3 (Speed BioSystems) and nonglycosylated recombinant IGFBP‐3 (MyBioSource, San Diego, CA, USA) were used as reported earlier. Glycosylated human CD44 recombinant protein was purchased from Sino Biological (Wayne, PA, USA). To cleave N‐linked glycans, the proteins were treated with PNGase F for 4 h at 37 °C under nondenaturing conditions according to the manufacturer's specification. To reduce the proteins and following previous protocols, the purified proteins were reduced with TCEP‐HCl (2.5 mM in PBS/1%BSA for 20 min at 4 °C) and then alkylated by 5 mM NEM for 30 min at 4 °C, to permanently block disulfide bond formation. As control, nonreduced samples treated with only 5 mM NEM were used. […]

[2] = system: A549 human NSCLC cells (CD44-expressing); assay: MTT cell viability, A549; format: cell-based; conditions: protein 50 nM, 48 h, with or without 5F12
Method: (§1) HFL1 (ATCC CCL‐153) normal, nontransformed, and nontumorigenic human fibroblast cell line and the human NSCLC cell line, A549 (ATCC CCL‐185), were purchased from the American Type Culture Collection (ATCC, Manassas, VA, USA). Cells were seeded as we reported earlier in 5 mL HyClone Dulbecco's modified Eagle's medium/nutrient mixture F‐12 (DMEM/F12) (GE Healthcare Life Sciences, Pittsburgh, PA, USA), supplemented with 10% Fetalgro bovine growth serum (FBS; RMBIO, Missoula, MT, USA), 50 U·mL^−1 penicillin, and 50 U·mL^−1 streptomycin (Invitrogen Life Technologies, Carlsbad, CA, USA) in 25‐cm^2 tissue culture flasks, and allowed to grow overnight in an incubator at 37 °C, 95% humidity, and 5% CO2. Cells were counted with a hemocytometer after trypan blue staining.
(§2) The MTT reduction assay (Sigma‐Aldrich), used to measure cell viability, was employed as we reported earlier. […] The absorbance was measured at 570 nm in a plate reader. […]
(§3) (A) IGFBP‐3 peptides (50 nM each) were bound to the ELISA plate wells, and then, 200 nM biotin‐HA was added and processed as described in the Materials and methods section. The data were normalized to the control incubated with BSA (control 1), and fold change relative to the control was calculated. […] Cell viability was assessed by the MTT assay. […]

[3] = system: HFL1 normal human fibroblast cells (CD44-negative); assay: MTT cell viability, HFL1; format: cell-based; conditions: protein 50 nM, 48 h, with or without 5F12
Method: as §1, §2, §3

IGFBP‐3 Nonglycosylated = biological target: T1, IGFBP‐3 Nonglycosylated (Homo sapiens, UniProt P17936); assay: ELISA binding of biotin-HA or biotin-HN to immobilized nonglycosylated IGFBP-3; conditions: nonglycosylated IGFBP-3 (50 nM) coated; 0–2 μM biotin-ligand, overnight 4 °C; mean ± SD of three independent experiments in triplicate; read-out: concentration of biotin-HA or biotin-HN that produced 50% of maximum binding
T1 construct: We therefore elected to use the full‐length IGFBP‐3 protein to examine the effect of glycosylation; purchased MyBioSource MBS142177
T1 sequence (P17936 28-291): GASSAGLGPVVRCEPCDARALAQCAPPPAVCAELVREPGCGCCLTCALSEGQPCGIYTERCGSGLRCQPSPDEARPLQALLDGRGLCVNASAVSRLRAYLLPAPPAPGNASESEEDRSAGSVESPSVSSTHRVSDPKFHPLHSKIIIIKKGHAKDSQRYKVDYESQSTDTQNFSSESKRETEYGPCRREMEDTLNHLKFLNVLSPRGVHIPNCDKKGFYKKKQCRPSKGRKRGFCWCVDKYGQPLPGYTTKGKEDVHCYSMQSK
Method: (§4) ELISA was conducted as we reported previously. Nunc MaxiSorp 96‐well flat‐bottom plates (Thermo Fisher, Waltham, MA, USA) were coated with samples as indicated. The plates were incubated overnight at 4 °C on a shaker to allow binding of the samples to the plate wells. After the incubation, the wells were washed 4× with TBST, filled with 400 µL blocking buffer (110 mM KCl, 5 mM NaHCO3, 5 mM MgCl2, 1 mM EGTA, 0.1 mM CaCl2, 20 mM HEPES, 1% BSA, pH 7.4), and incubated overnight at 4 °C on a shaker. The wells were then washed 4× with TBST, and 100 µL of sample at the desired concentration was added to each well before incubating overnight at 4 °C on a shaker. TBST was then used to wash the wells 4× before proceeding in one of two ways: (a) Biotinylated samples were analyzed by adding 100 µL streptavidin–HRP conjugate in TBST (1 : 2500 dilution) to the samples before incubating for 3 h at RT on a shaker, or (b) samples without biotin were analyzed by adding 100 µL TBST containing the primary antibody at the manufacturer's recommendation and incubating for 3 h at RT on a shaker before washing 4× with TBST. […] The reaction was stopped with 100 µL 2 M H2SO4 after incubating at RT for 0.5–15 min, resulting in a yellow color change that was measured by absorbance at 450 nm. […] Statistical analysis was determined by the GRAPHPAD PRISM 8.4.2 software (San Diego, CA, USA). […]

IGFBP‐3 Glycosylated = biological target: T2, IGFBP‐3 Glycosylated (Homo sapiens, UniProt P17936); assay: ELISA binding of biotin-HA or biotin-HN to immobilized glycosylated IGFBP-3; conditions: glycosylated IGFBP-3 (50 nM) coated; 0–2 μM biotin-ligand, overnight 4 °C; mean ± SD of three independent experiments in triplicate; read-out: concentration of biotin-HA or biotin-HN that produced 50% of maximum binding
T2 construct: We therefore elected to use the full‐length IGFBP‐3 protein to examine the effect of glycosylation; His; purchased Speed BioSystems YCP1009
T2 sequence (P17936 28-291): as above
Method: as §4

[4] = biological target: T3, IGFBP‐3 Nonglycosylated/Reduced (Homo sapiens, UniProt P17936); assay: ELISA binding of biotin-HA or biotin-HN to immobilized nonglycosylated/reduced IGFBP-3; conditions: nonglycosylated/reduced (TCEP, NEM) IGFBP-3 (50 nM) coated; 0–2 μM biotin-ligand, overnight 4 °C; mean ± SD of three independent experiments in triplicate; read-out: concentration of biotin-HA or biotin-HN that produced 50% of maximum binding
T3 construct: We therefore elected to use the full‐length IGFBP‐3 protein to examine the effect of glycosylation; purchased MyBioSource MBS142177
T3 sequence (P17936 28-291): as above
Method: as §4

[5] = biological target: T4, IGFBP‐3 Glycosylated/Reduced (Homo sapiens, UniProt P17936); assay: ELISA binding of biotin-HA or biotin-HN to immobilized glycosylated/reduced IGFBP-3; conditions: glycosylated/reduced (TCEP, NEM) IGFBP-3 (50 nM) coated; 0–2 μM biotin-ligand, overnight 4 °C; mean ± SD of three independent experiments in triplicate; read-out: concentration of biotin-HA or biotin-HN that produced 50% of maximum binding
T4 construct: We therefore elected to use the full‐length IGFBP‐3 protein to examine the effect of glycosylation; His; purchased Speed BioSystems YCP1009
T4 sequence (P17936 28-291): as above
Method: as §4

[6] = after reduction; cited from earlier work
Text: We next tested whether reduction of CD44 affects its ability to compete with IGFBP‐3 for binding HA. […] Reduction of this bond inhibited HA‐CD44 interaction in vitro, and the ability of cells to adhere to HA‐coated surfaces was blocked by pretreatment with reducing agents. Moreover, reductio ...

[7] = system: IGFBP‐3 interaction with importin‐β1; conditions: in vitro; cited from earlier work
Text: (§5) Humanin (HN), first discovered by the Nishimoto laboratory, is a mitochondrial‐derived peptide known to bind with high affinity and specificity to the 18‐amino acid residue (215–232) heparin‐binding domain of IGFBP‐3 [54] that also binds HA.

amyloid‐β = conditions: aggregation induced by acetylcholinesterase; cited from earlier work
Text: as §5

IC50 [1]: 176 ± 37 nM
Substance: CD44 Nonglycosylated/Reduced: PNGase F treated CD44, reduced with TCEP-HCl then alkylated by NEM

Substance: nonglycosylated IGFBP‐3 protein: nonglycosylated recombinant IGFBP-3 (MyBioSource)
A549 cell viability, IGFBP-3 proteins (in words) [2]: a comparable decrease in A549 cell viability
HFL1 cell viability, IGFBP-3 proteins (in words) [3]: lack of effect

Substance: Biotin‐HN: biotin-HN (B-018-26, UniProt Q8IVG9), Phoenix Pharmaceuticals; biotinylated humanin
EC50 (IGFBP‐3 Nonglycosylated): 92 ± 16 nM
EC50 (IGFBP‐3 Glycosylated): 104 ± 14 nM
EC50 [4]: 96 ± 12 nM
EC50 [5]: 98 ± 16 nM

Substance: recombinant soluble CD44: recombinant soluble CD44 of ref 47
effect of reduction on ability of CD44 to bind HA (in words) [6]: inhibit its ability to bind HA

IC50 [1]: 9 ± 2 nM
Substance: CD44 Nonglycosylated: human recombinant CD44 treated with PNGase F to cleave N-linked glycans
ability of CD44 to block HA-IGFBP-3 interaction (in words) ([1]; 10 nM IGFBP-3 coated, biotin-HA 100 nM): more efficient at inhibiting the binding of biotin‐HA to immobilized IGFBP‐3 than glycosylated CD44

Substance: HN: mitochondrial-derived peptide binding the 18-amino acid residue (215–232) heparin-binding domain of IGFBP-3 (MAPRGFSCLLLLTSEIDLPVKRRA-NH2; UniProt Q8IVG9 1-24, looked up)
effect on IGFBP-3–importin-β1 interaction (in words) [7]: blocks its interaction with importin‐β1 in vitro
effect on amyloid-β aggregation (in words) (amyloid‐β): aggregation of amyloid‐β induced by acetylcholinesterase is blocked by the presence of HN

IC50 [1]: 128 ± 24 nM
Substance: CD44 Glycosylated: Glycosylated human CD44 recombinant protein (Sino Biological)

IC50 [1]: 210 ± 41 nM
Substance: CD44 Glycosylated/Reduced: glycosylated CD44, reduced with TCEP-HCl then alkylated by NEM

Substance: glycosylated IGFBP‐3 protein: Glycosylated recombinant His-tagged IGFBP-3 (Speed BioSystems)
A549 cell viability, IGFBP-3 proteins (in words) [2]: a comparable decrease in A549 cell viability
HFL1 cell viability, IGFBP-3 proteins (in words) [3]: lack of effect
